Results from patent US11673876B2, “Substituted aminobenzyl heteroaryl compounds as EGFR and/or PI3K inhibitors” (Mekanistic Therapeutics LLC, priority 2020, dated 2023).

Experiments:
[1] = Pharmacokinetics in mice, single IV or oral administration; format: in vivo, mouse; conditions: for C0 / half-life / Cmax / Tmax: blood; for C0 / half-life / Cmax / Tmax / Cl_obs / F: mouse
Experimental: (§1) The pharmacokinetics of Compound 2R (HCl salt) and Comparative Compound 2 were studied following a single intravenous and/or oral administration to mice, dogs, and monkeys (n=3 for all species). The IV and PO solution formulations for Comparative Compound 2 contained 20% (w/v) propylene glycol, 75% (w/v) 50 mM trisodium phosphate (pH 12), and 5% (w/v) Kolliphor EL. The formulation for Compound 2R contained 1:2 propylene glycol: 1% Tween 80/Na3PO4 (50 mM). Subsequent pharmacokinetic data analysis was performed using non-compartmental analysis modules in Phoenix/WINNONLIN 6.3 (Pharsight, St. Louis, Mo., USA), and the linear trapezoidal rule was used for AUC calculation. Terminal elimination half-life (t½) was calculated based on data points (≥3) in the terminal phase; Tmax=Time of maximum observed concentration; AUClast/D=Area under the concentration-time curve from time zero to the last observed concentration/divided by dose; Cl_obs=Total body clearance; Cmax=maximum observed concentration; F=bioavailability of oral dose form. Blood samples were assayed for compounds using protein precipitation with acetonitrile followed by HPLC/MS/MS analysis. Blood concentration-time data were analyzed by non-compartmental methods.

[2] = Pharmacokinetics in dogs, single IV or oral administration; format: in vivo, dog; conditions: for C0 / half-life / Cmax / Tmax: blood; for C0 / half-life / Cmax / Tmax / Cl_obs / F: dog
Experimental: as §1

[3] = Pharmacokinetics in monkeys, single IV or oral administration; format: in vivo, monkey; conditions: for C0 / half-life / Cmax / Tmax: blood; for C0 / half-life / Cmax / Tmax / Cl_obs / F: monkey
Experimental: as §1

[4] = tested on: PIK3CA mutant human CAL-33 (squamous head and neck cancer); assay: CAL-33 xenograft study in NCR nude mice; format: in vivo; conditions: for Median Increase In Survival: time to 1000 mg vs vehicle
Experimental: (§2) Xenograft Studies. Female NCR nude mice (CrTac:NCr-Foxn1nu from Taconic), 6-7 weeks old, were implanted subcutaneously with 5×10^6 cells in a 1:1 serum-free media/Matrigel® mixture into the region of the right axilla. Mice were randomized into treatment groups and treatments initiated when tumors reached 100 to 200 mg. Compound 2R was administered daily by oral gavage as a fine suspension in 1:2 propylene (glycol in 1% Tween80/Na3PO4 based upon individual animal body weight (0.2 mL/20 g). Subcutaneous tumor volume and body weights were measured two to three times a week. Tumor volumes were calculated by measuring two perpendicular diameters with calipers and using the formula: tumor volume=(length×width2)/2. Individual mice were dosed daily until their tumor burden reached 500 mg for the CAL-27 and HCC-70 models or 1000 mg for the CAL-33 model, to allow for calculation of increase in progression-free survival. Percent increase in survival was calculated by comparing the median time to reach either 500 mg or 1000 mg in the treated group versus the vehicle control group. A complete response (CR) is defined as a tumor below the limits of palpation (<40 mg).
(§3) FIGS. 1-3 show the performance of Compound 2R in controlling tumor size. […] Tumor growth curves as well as survival and objective response data are summarized in the accompanying FIGS. 1-3 and the table below.

[5] = tested on: PI3K gamma mutant human CAL-27 (squamous head and neck cancer); assay: CAL-27 xenograft study in NCR nude mice; format: in vivo; conditions: CAL-27 model
Experimental: as §2, §3

[6] = tested on: human CAL-27 (squamous head and neck cancer); assay: CAL-27 xenograft study in NCR nude mice; format: in vivo; conditions: time to 500 mg vs vehicle
Experimental: as §2, §3

[7] = tested on: human HCC-70 (triple negative breast cancer); assay: HCC-70 xenograft study in NCR nude mice; format: in vivo
Experimental: as §2, §3

[8] = Tolerability in the xenograft studies; format: in vivo; conditions: highest dose tested 100 mg/kg, daily dosing over >50 days
Experimental: as §2, §3

CS(=O)(=O)Nc1cc(-c2ccc3ncnc(Nc4ccc(F)c(Cl)c4)c3c2)cnc1Cl [Comparative Compound 2, reference compound]
C0 ([1]; 10 mg/kg, IV, 10 mpk): 25600 ng/mL | half-life ([1]; 10 mg/kg, IV, 10 mpk): 1.2 h | Cmax ([1]; 10 mg/kg, oral, 10 mpk): 8270 ng/mL | Tmax ([1]; 10 mg/kg, oral, 10 mpk): 1 h | half-life ([1]; 10 mg/kg, oral, 10 mpk): 1.4 h | Cl_obs ([1]; IV, 10 mpk): 3.3 mL/min/kg | F ([1]; oral, 10 mpk): 63% | C0 ([2]; 1 mg/kg, IV, 1 mpk): 5490 ng/mL | half-life ([2]; 1 mg/kg, IV, 1 mpk): 0.7 h | Cmax ([2]; 5 mg/kg, oral, 5 mpk): 716 ng/mL | Tmax ([2]; 5 mg/kg, oral, 5 mpk): 2 h | half-life ([2]; 5 mg/kg, oral, 5 mpk): 0.8 h | Cl_obs ([2]; IV, 1 mpk): 10.50 mL/min/kg | F ([2]; oral, 5 mpk): 25% | C0 ([3]; 1 mg/kg, IV, 1 mpk): 5910 ng/mL | half-life ([3]; 1 mg/kg, IV, 1 mpk): 1.1 h | Cmax ([3]; 10 mg/kg, oral, 10 mpk): 110 ng/mL | Tmax ([3]; 10 mg/kg, oral, 10 mpk): 1 h | half-life ([3]; 10 mg/kg, oral, 10 mpk): 2 h | Cl_obs ([3]; IV, 1 mpk): 15.71 mL/min/kg | F ([3]; oral, 10 mpk): 3%

C[C@@H](Nc1ncnc2ccc(-c3cnc(Cl)c(NS(C)(=O)=O)c3)cc12)c1ccccc1 [Compound 2R, N-(2-chloro-5-(4-((1R-phenylethyl)amino)quinazolin-6-yl)pyridin-3-yl)methanesulfonamide]
Median Increase In Survival ([4]; CAL-33, 25 mg/kg daily oral gavage): >700% | Median Increase In Survival ([4]; CAL-33, 50 mg/kg daily oral gavage): >700% | Median Increase In Survival ([4]; CAL-33, 100 mg/kg daily oral gavage): >700% | single agent activity (tumor growth) ([4]; CAL-33 model): Single agent activity of Compound 2R was demonstrated | single agent activity (tumor growth) [5]: Single agent activity of Compound 2R was demonstrated | Median Increase In Survival ([6]; CAL-27, 10 mg/kg daily oral gavage): 328% | Median Increase In Survival ([6]; CAL-27, 100 mg/kg daily oral gavage): >700% | Median Increase In Survival ([7]; HCC-70, 100 mg/kg daily oral gavage, time to 500 mg vs vehicle): 363% | single agent activity (tumor growth) ([7]; HCC-70 model): Single agent activity of Compound 2R was demonstrated | C0 ([1]; 5 mg/kg, IV, 5 mpk): 25700 ng/mL | half-life ([1]; 5 mg/kg, IV, 5 mpk): 2.5 h | Cmax ([1]; 25 mg/kg, oral, 25 mpk): 21700 ng/mL | Tmax ([1]; 25 mg/kg, oral, 25 mpk): 4.17 h | half-life ([1]; 25 mg/kg, oral, 25 mpk): 4.9 h | increase in exposure (AUClast/D) compared to Comparative Compound 2 ([1]; mice, IV): ~3 fold | enhanced exposure relative to Comparative Compound 2 ([1]; mice, oral): 3 fold | Cl_obs ([1]; IV, 5 mpk): 1.2 mL/min/kg | F ([1]; oral, 25 mpk): 83% | C0 ([2]; 1 mg/kg, IV, 1 mpk): 7150 ng/mL | half-life ([2]; 1 mg/kg, IV, 1 mpk): 10.4 h | Cmax ([2]; 5 mg/kg, oral, 5 mpk): 7090 ng/mL | Tmax ([2]; 5 mg/kg, oral, 5 mpk): 2 h | half-life ([2]; 5 mg/kg, oral, 5 mpk): 12 h | Cl_obs ([2]; IV, 1 mpk): 0.52 mL/min/kg | F ([2]; oral, 5 mpk): 48% | increase in exposure (AUClast/D) compared to Comparative Compound 2 ([2]; dogs, dosed intravenously): ~15 fold | improvement in exposure (AUClast/D) relative to Comparative Compound 2 ([2]; dogs, oral): > 28 fold | C0 ([3]; 1 mg/kg, IV, 1 mpk): 4170 ng/mL | half-life ([3]; 1 mg/kg, IV, 1 mpk): 2.3 h | Cmax ([3]; 10 mg/kg, oral, 10 mpk): 4710 ng/mL | Tmax ([3]; 10 mg/kg, oral, 10 mpk): 2 h | half-life ([3]; 10 mg/kg, oral, 10 mpk): 4 h | Cl_obs ([3]; IV, 1 mpk): 4.81 mL/min/kg | F ([3]; oral, 10 mpk): 59% | increase in exposure (AUClast/D) compared to Comparative Compound 2 ([3]; monkeys, IV): ~3 fold | improvement in exposure (AUClast/D) relative to Comparative Compound 2 ([3]; monkeys, oral): > 74 fold | tolerability (body weight loss, clinical signs) [8]: well tolerated at the highest dose tested (100 mg/kg) with no signs of body weight loss or other clinical signs
